According to PubChem BioAssay (NCI):
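96-well plates; 48 h exposure; 5 concentrations. Endpoints by linear interpolation between flanking doses. Not reached: highest tested concentration assigned. GI50 is the concentration that inhibits growth by half. Definition used: TGI = concentration required for complete inhibition of growth.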

How the values were obtained:
Test in all cases: growth of human tumour cells (NCI), 48 h
[1] = system: KM12 colon
[2] = system: HL-60(TB) leukemia
[3] = system: NCI-H23 lung
[4] = system: A498 renal
[5] = system: MCF7 breast
[6] = system: UACC-62 melanoma
[7] = system: T-47D breast
[8] = system: NCI/ADR-RES ovarian
[9] = system: PC-3 prostate
[10] = system: MDA-MB-231 breast

Compound | TGI [1] [µM] | TGI [2] [µM] | TGI [3] [µM] | GI50 [1] [µM] | GI50 [4] [µM] | TGI [4] [µM] | GI50 [5] [µM] | TGI [5] [µM] | GI50 [6] [µM] | TGI [6] [µM] | GI50 [3] [µM] | GI50 [7] [µM] | TGI [7] [µM] | GI50 [8] [µM] | TGI [8] [µM] | GI50 [9] [µM] | TGI [9] [µM] | GI50 [10] [µM] | TGI [10] [µM] | GI50 [2] [µM]
Cc1nnc(N/N=C(/C(=O)C(C#N)c2ccc(Cl)cc2)C(C#N)c2ccc(Cl)cc2)n1N (stereo not drawn) | 39.8 | 55.4 | 35.3 |  |  |  |  |  |  |  |  |  |  |  |  |  |  |  |  | 
CSC1=Nc2c(c(C)c(-c3ccccc3)n2COC(CO)CO)C2=NC(=O)CN12 | > 100 |  | > 100 | > 100 | > 100 | > 100 | > 100 | > 100 | > 100 | > 100 | > 100 | > 100 | > 100 | > 100 | > 100 | > 100 | > 100 | > 100 | > 100 | 
COc1ccc(-c2c3c(N)c4c(nc3nc3c2c(C)nn3-c2ccccc2)CCCC4)cc1 | 10.8 | 4.3 |  | 3.16 | 11.9 | 27.3 | 2.57 | 8.88 | 13.7 | 27.9 |  |  |  | 3.41 | 14.2 | 2.54 | 10.9 | 4.15 | 16.9 | 2.12
CC1CCC2(C)C(CC=C(C=O)C2(O)C=O)C12CO2 (stereo not drawn) | 11.4 | 2.92 | 5.83 |  |  | 20.1 |  |  |  | 4.02 |  |  |  |  |  |  |  |  |  | 
Cc1ccc(Cl)cc1-n1c(C)nc2c(cnn2-c2ccnc3c(C(F)(F)F)cccc23)c1=O | > 100 | > 100 | > 100 | > 100 |  |  | > 100 | > 100 | > 100 | > 100 | > 100 | > 100 | > 100 | > 100 | > 100 | > 100 | > 100 | > 100 | > 100 | > 100
C[P+]1(c2ccccc2)CCCCC1 | > 100 |  | > 100 |  |  | > 100 |  |  |  | > 100 |  |  |  |  |  |  |  |  |  | 
O=C(CO)C1CC2C=CC1C2 (stereo not drawn) | > 100 | > 100 | > 100 |  |  | > 100 |  |  |  | > 100 |  |  |  |  |  |  |  |  |  | 
C=CC[N+]1(CC)CCN=C1CCCCCCCCCCCCCCCCC (stereo not drawn) |  | 2.07 | 0.589 |  | 1.44 | 2.86 | 0.346 | 1.28 | 0.935 | 2.3 | 0.119 | 0.315 | 1.62 |  |  | 0.237 | 0.702 | 0.763 | 2.19 | 0.562
O=C(c1c(O)cc(O)cc1O)C1Cc2ccccc21 (stereo not drawn) | > 100 | > 100 |  |  |  | > 100 |  |  |  | > 100 |  |  |  |  |  |  |  |  |  | 
COc1cc(/C=C/C(=O)O[C@H]2[C@H](O[C@@H]3O[C@@H](C)[C@H](O)[C@@H](O)[C@H]3O)[C@@H](O)[C@H](OCCc3ccc(O)c(O)c3)O[C@@H]2COC2OCC(O)(CO)C2O)ccc1O (stereo partly drawn) | > 100 | > 100 |  | > 100 |  |  |  |  | > 100 | > 100 |  | > 100 | > 100 | > 100 | > 100 | > 100 | > 100 | > 100 | > 100 | > 100
